Results reported in patent US20210308034A1, “PREBIOTIC COMPOSITIONS AND METHODS FOR MAINTAINING A HEALTHY SKIN MICROBIOTA” (KIMBERLY-CLARK WORLDWIDE, INC., priority 2018, published 2021).

Columns and labels:
Type in all cases: cell-based
[1] = system: Staphylococcus epidermidis (ATCC 14990); assay: Carbohydrate Screening Test Method (Biolog phenotype microarray), Bacteria Code I; conditions: Commensal; carbon microarray plate, OD 600 nm, 36 hr, 33° C.; positive = more than 0.05 OD units above zero; blank cell = not utilized
From the text: (§1) After creating desired ratios of various commensal skin bacteria in a healthy skin microbiome, 188 different carbohydrate sources were screened as the next step in determining potential prospects for skin microbiota balancing agents. The screening process was set up to determine which carbohydrate sources promoted commensal and/or pathogenic bacteria as well as to obtain individual and combinations of carbohydrate sources that could serve as microbiota balancing agents that can support or maintain the healthy proportions of commensal skin bacteria of Corynebacterium, Staphylococcus, and Micrococcus. The screening was conducted utilizing Biolog phenotype microarray plates (Hayward, Calif.). Table 1 provides a coded list of the commensal and pathogenic skin bacteria that the carbohydrates were screened against.
(§2) Table 2 provides the results of screening various carbohydrate sources against the commensal and pathogenic bacteria codes listed in Table 1. The Bacteria Codes B, D, E, I, and J are commensal bacteria and are shaded in Table 2 for references purposes. The bacteria codes were each placed in a carbon microarray plate and screened through the Carbohydrate Screening Test Method, as described in the Test Methods section herein. If a particular bacteria code utilized a specific carbohydrate source as described in the Carbohydrate Screening Test Method, then the corresponding cell in Table 2 was marked with a Y (short for “Yes”). […] Many of the carbohydrate sources were utilized by both commensal and pathogenic bacteria, and as such, would not provide an advantage for selective growth of the commensal bacteria. However, some of the carbohydrate sources were only used by commensal bacteria and were identified for further testing as described herein.
(§3) The study employed 10 representative skin bacteria; Staphylococcus epidermidis ATCC 14990, Staphylococcus epidermidis M23864:W2, Staphylococcus aureus ATCC 6538, Staphylococcus aureus ATCC 25904 (Newman), Pseudomonas aeruginosa ATCC 9027, Micrococcus luteus ATCC […], Micrococcus luteus SK58, Klebsiella pneumoniae ATCC BAA-2146, Corynebacterium amycolatum SK46, and Corynebacterium minutissimum ATCC 23348. Cultures were started from freezer bead stocks by placing a single bead into 20 mL of tryptic soy broth (TSB) for all organisms except C. amycolatum SK46 and C. minutissimum ATCC 23348, which were placed into brain heart infusion (BHI) broth. Cultures were grown for about 24 hr at 37° C. except M. luteus ATCC 49732 and M. luteus SK58, which were grown at 30° C. A passage of the culture was made using a sterile swab and streaked onto two M9*2 agar plates to prepare the incubated culture for the phenotype microarray pate according to Table 4. Plates were incubated for about 24 hr at 37° C. except for M. luteus ATCC 49732 and M. luteus SK58, which were incubated at 30° C. for 24 hr.
(§4) All cultures were harvested and washed before inoculation into the carbon microarray plate (BiOLOG, Hayward Calif.), with Biolog Plates PM1 and PM2 each having a source definition of Carbon. The bacteria on the M9*2 agar was suspended via agitation with an inoculating loop in 1 mL of M9*1 media for collection in a 1.7 mL micro centrifuge tube, as noted in Table 4. The bacteria was suspended again in M9*1 media, agitated, and collected into the same 1.7 mL microcentrifuge tube used in the previous step. The tube was centrifuged for 5 minutes at 4,000×G, supernatant decanted, the pellet was resuspended in 1 mL of M9*1 media, and vortex. This washing process was repeated for a total of 4 times.
(§5) A tenfold dilution in M9*1 media was performed using 1 mL of the washed bacterial culture. Of the tenfold dilution 200 μL was placed in an untreated 96-well plate (Falcon, Pasadena Tx.) for an initial optical density (OD) reading at a wavelength of 600 nm. The OD was used to correlate to colony forming units (CFU) per milliliter by using linear regression lines for each organism. […]

[2] = system: Micrococcus luteus (ATCC 49732); assay: Carbohydrate Screening Test Method (Biolog phenotype microarray), Bacteria Code D; conditions: Commensal; carbon microarray plate, OD 600 nm, 36 hr, 33° C.; positive = more than 0.05 OD units above zero; blank cell = not utilized
From the text: as §1, §2, §3, §4, §5

[3] = system: Micrococcus luteus (SK58); assay: Carbohydrate Screening Test Method (Biolog phenotype microarray), Bacteria Code E; conditions: Commensal; carbon microarray plate, OD 600 nm, 36 hr, 33° C.; positive = more than 0.05 OD units above zero; blank cell = not utilized
In short: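 Each commensal strain grown in Biolog carbon phenotype microarray plates with single carbohydrate sources. Growth curves fitted with GrowthRates 2.1 to give growth rate and maximum yield. Max yields used to calculate predicted co-culture ratios between Corynebacterium, Staphylococcus and Micrococcus, compared with desired ratios of 1.3, 1.4 and 1.1.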

[4] = system: Corynebacterium jeikum (ATCC 33033); assay: Carbohydrate Screening Test Method (Biolog phenotype microarray), Bacteria Code B; conditions: Commensal; carbon microarray plate, OD 600 nm, 36 hr, 33° C.; positive = more than 0.05 OD units above zero; blank cell = not utilized
In short: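 Strain from M9*2 agar was suspended in M9*1 medium, washed and inoculated into Biolog PM1/PM2 carbon plates. Carbohydrate use was scored yes/no, and growth rate and maximum yield were derived with GrowthRates 2.1, with max yields used for commensal ratios.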

[5] = system: Corynebacterium minutissimum (ATCC 23348); assay: Carbohydrate Screening Test Method (Biolog phenotype microarray), Bacteria Code A; conditions: Pathogenic; carbon microarray plate, OD 600 nm, 36 hr, 33° C.; positive = more than 0.05 OD units above zero; blank cell = not utilized
From the text: as §1, §2, §3, §4, §5

[6] = system: Staphylococcus epidermidis (M23864:W2); assay: Carbohydrate Screening Test Method (Biolog phenotype microarray), Bacteria Code J; conditions: Commensal; carbon microarray plate, OD 600 nm, 36 hr, 33° C.; positive = more than 0.05 OD units above zero; blank cell = not utilized
From the text: as §1
The Bacteria Codes B, D, E, I, and J are commensal bacteria and are shaded in Table 2 for references purposes. The bacteria codes were each placed in a carbon microarray plate and screened through the Carbohydrate Screening Test Method, as described in the Test Methods section herein. If a particular bacteria code utilized a specific carbohydrate source as described in the Carbohydrate Screening Test Method, then the corresponding cell in Table 2 was marked with a Y (short for “Yes”).
To do so, the respective microarray data for the 79 carbohydrate sources was run through the GrowthRates 2.1 program to obtain growth parameters, such as growth rates and maximum yield data as described by the Belingham Research Institute, Hall, B. G., H. Acar and M. Barlow. 2014 Growth Rates Made Easy. Mol. Biol. Evol. 31:232-238 doi:10.1093/molbev/mst197. The max yield parameters generated were utilized to calculate ratios of tested commensal bacteria. The ratios calculated were compared back to the desired ratios identified above (Corynebacterium to Staphylococcus of 1.3, Corynebacterium to Micrococcus of 1.4, and Staphylococcus to Micrococcus of 1.1).
As an example of this methodology used to calculate the commensal bacteria ratios and the difference between the calculated ratios and the desired ratios, an example code from Table 3 will be described. […] The max yields were then used to calculate ratios the bacteria would reach in a co-culture.

[7] = system: Pseudomonas aeruginosa (ATCC 9027); conditions: Pathogenic; carbon microarray plate, OD 600 nm, 36 hr, 33° C.; positive = more than 0.05 OD units above zero; blank cell = not utilized
In short: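 Carbon-source utilisation screen on Biolog PM1/PM2 plates: strain grown in TSB then on M9*2 agar, each ~24 h at 37 °C, washed four times in M9*1 and diluted tenfold. OD600 correlated to CFU/mL; each carbohydrate scored Yes when utilised.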

[8] = system: Klebsiella pneumoniae (ATCC BAA-2146); conditions: Pathogenic; carbon microarray plate, OD 600 nm, 36 hr, 33° C.; positive = more than 0.05 OD units above zero; blank cell = not utilized

Compound | Carbohydrate Screening Results, Bacteria Code D [2] | Carbohydrate Screening Results, Bacteria Code J [6] | other results
NC(=O)CCC(=O)O [Succinamic Acid] | Y |  | Carbohydrate Screening Results, Bacteria Code I [1]: Y
O=C1O[C@H](CO)[C@@H](O)[C@H]1O [D-Ribono-1,4-Lactone] | Y |  | 
NCCO [2-Aminoethanol] | Y |  | Carbohydrate Screening Results, Bacteria Code E [3]: Y; Carbohydrate Screening Results, Bacteria Code B [4]: Y
CSCC[C@H](N)C(=O)O [L-Methionine] |  |  | Carbohydrate Screening Results, Bacteria Code A [5]: Y
Gelatin | Y | Y | 
Chondroitin Sulfate C | Y |  | 
N=C(N)NCCC[C@H](N)C(=O)O [L-Arginine] | Y |  | Carbohydrate Screening Results, Bacteria Code F [7]: Y
O=C[C@H](O)[C@@H](O)[C@@H](O)[C@H](O)C(=O)O [D-Galacturonic Acid] | Y |  | Carbohydrate Screening Results, Bacteria Code E [3]: Y; Carbohydrate Screening Results, Bacteria Code B [4]: Y
OC[C@H]1O[C@@H]2O[C@H]3[C@H](O)[C@@H](O)[C@@H](O[C@H]4[C@H](O)[C@@H](O)[C@@H](O[C@H]5[C@H](O)[C@@H](O)[C@@H](O[C@H]6[C@H](O)[C@@H](O)[C@@H](O[C@H]7[C@H](O)[C@@H](O)[C@@H](O[C@H]8[C@H](O)[C@@H](O)[C@@H](O[C@H]1[C@H](O)[C@H]2O)O[C@@H]8CO)O[C@@H]7CO)O[C@@H]6CO)O[C@@H]5CO)O[C@@H]4CO)O[C@@H]3CO [β-Cyclodextrin] | Y | Y | Carbohydrate Screening Results, Bacteria Code I [1]: Y
CC(=O)N[C@H]1C(O)O[C@H](CO)[C@H](O)[C@@H]1O (stereo partly drawn) [N-Acetyl-D-Galactosamine] | Y |  | 
COC1OC(CO)C(O)C(O)C1O [α-Methyl-D-Mannoside] | Y |  | 
CC(=O)C(=O)O [Pyruvic Acid] | Y | Y | Carbohydrate Screening Results, Bacteria Code F [7]: Y; Carbohydrate Screening Results, Bacteria Code I [1]: Y; Carbohydrate Screening Results, Bacteria Code B [4]: Y
O=C(O)C(=O)C(C(=O)O)C(O)C(=O)O (stereo not drawn) [Oxalomalic Acid] | Y | Y | 
C[C@H](N)C(N)=O [L-Alaninamide] | Y | Y | 
O=c1ccn([C@@H]2O[C@H](CO)[C@@H](O)[C@H]2O)c(=O)[nH]1 [Uridine] | Y |  | Carbohydrate Screening Results, Bacteria Code B [4]: Y; Carbohydrate Screening Results, Bacteria Code C [8]: Y
O=C[C@@H](O)[C@H](O)[C@H](O)CO [D-Arabinose] | Y |  | 
